The source of these data is paper PMC4026281 (Journal of neurochemistry, 2012).

Test [1] has as its system nAChRs on SuSC GABAergic terminals (crude synaptosomes). Format: biochemical, mouse.
The subject of another test is rat α3β2 receptors. Conditions: cited from earlier work.
For test [2], the system named is nAChRs, SuSC crude synaptosomes of nAChR subunit null mutant mice. Format: biochemical, mouse.
Test [3] has as its system nAChRs in SC core membranes. Format: binding, mouse (C57BL/6).
The test system of the next test is nAChRs in SuSC membranes. It counts as binding, mouse (C57BL/6).
Test [4] relates to α-CtxMII-sensitive nAChR, striatum. Conditions: cited from earlier work.
The next test deals with α6β2* and α3β2* nAChR. Conditions: cited from earlier work.
For test [5], the target named is α-CtxMII-sensitive nAChR, SuSC crude synaptosomes (Mus musculus, UniProt Q8R4G9+Q9ERK7). It counts as biochemical.
α-CtxMII-sensitive nAChR, SuSC crude synaptosomes, sequence (Q8R4G9 whole entry, looked up): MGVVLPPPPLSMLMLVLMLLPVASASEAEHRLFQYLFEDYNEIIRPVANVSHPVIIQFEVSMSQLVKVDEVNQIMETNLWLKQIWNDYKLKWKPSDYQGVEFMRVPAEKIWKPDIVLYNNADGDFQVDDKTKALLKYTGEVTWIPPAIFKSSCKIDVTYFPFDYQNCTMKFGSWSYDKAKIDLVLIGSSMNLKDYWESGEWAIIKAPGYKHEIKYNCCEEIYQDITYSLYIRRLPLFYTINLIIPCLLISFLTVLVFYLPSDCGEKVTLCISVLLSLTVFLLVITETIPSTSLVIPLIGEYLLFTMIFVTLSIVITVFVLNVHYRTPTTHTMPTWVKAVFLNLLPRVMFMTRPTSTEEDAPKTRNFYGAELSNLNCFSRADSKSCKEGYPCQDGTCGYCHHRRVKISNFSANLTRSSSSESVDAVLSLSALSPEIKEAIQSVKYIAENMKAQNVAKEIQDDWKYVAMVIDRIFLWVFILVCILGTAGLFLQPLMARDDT
α-CtxMII-sensitive nAChR, SuSC crude synaptosomes, sequence (Q9ERK7 whole entry, looked up): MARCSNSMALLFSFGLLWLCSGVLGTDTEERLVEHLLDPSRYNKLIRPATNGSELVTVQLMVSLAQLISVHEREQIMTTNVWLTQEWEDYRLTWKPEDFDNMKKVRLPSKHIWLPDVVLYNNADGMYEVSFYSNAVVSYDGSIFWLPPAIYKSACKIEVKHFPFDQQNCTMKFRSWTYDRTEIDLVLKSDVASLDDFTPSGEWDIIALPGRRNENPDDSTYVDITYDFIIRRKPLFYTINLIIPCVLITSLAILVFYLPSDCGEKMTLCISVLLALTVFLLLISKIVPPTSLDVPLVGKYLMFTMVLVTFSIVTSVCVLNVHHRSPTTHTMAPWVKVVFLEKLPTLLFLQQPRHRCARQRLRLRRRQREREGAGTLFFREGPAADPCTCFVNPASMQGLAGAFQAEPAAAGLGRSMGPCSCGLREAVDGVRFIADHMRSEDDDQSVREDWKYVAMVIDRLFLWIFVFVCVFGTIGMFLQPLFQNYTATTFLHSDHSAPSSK
In test [6] the test system is α6β2*-nAChR, crude striatal synaptosomes. Format: biochemical, mouse.
A further test concerns SuSC crude synaptosomes. It counts as biochemical, mouse. The following applies: n = 5.
The test system of a further test is nAChR, SuSC. Conditions: rat, in vivo; cited from earlier work.
A further test concerns α4β2* nAChR. The following applies: cited from earlier work.

“And” between values parts separate entries of the source, which are not always exact repeats. Identical values can stand only once. “Also recorded” adds a separate entry of the source.

Consider `CNC1(C)C2CCC(C2)C1(C)C` (stereo not shown) [Mecamylamine, mecamylamine], for which the “effect on ACh-evoked [^3H]-GABA release (abstract)” value in [1] is reported as “blocked”. The “effect of mecamylamine on ACh-stimulated [^3H]-GABA release” value in [1] (10 μM, 1 min, n=3) was “completely eliminated ACh-stimulated release of [^3H]-GABA”.
With `C[C@]12N[C@H](Cc3ccccc31)c1ccccc12` [MK-801, (5S,10R)-(+)-5-Methyl-10,11-dihydro-5H-dibenzo[a,d]cyclohepten-5,10-imine], the “effect of MK-801 on ACh-stimulated [^3H]-GABA release” value in test [1] (200 μM, 5 min, n=4) is “no effect”.
For `CN1[C@@H]2CC[C@H]1C[C@@H](OC(=O)C(CO)c1ccccc1)C2` (stereo partly shown) [atropine], the “effect of atropine on ACh-stimulated [^3H]-GABA release” value in test [1] is given as “no effect”.
With `N#Cc1cc2c(cc1[N+](=O)[O-])=NC(=O)C(=O)N=2` [CNQX, 6-Cyano-7-nitroquinoxaline-2,3-dione], the “effect of CNQX on ACh-stimulated [^3H]-GABA release” value in test [1] (100 μM, 5 min, n=4) is listed as “no effect”.
`Nc1ncnc2c1ncn2[C@@H]1O[C@H](COP(=O)(O)OP(=O)(O)OP(=O)(O)O)[C@H]2OC3(O[C@H]21)C([N+](=O)[O-])=CC(=[N+]([O-])[O-])C=C3[N+](=O)[O-]` (stereo partly shown) [TNP-ATP]: in [1] (10 μM, 4 min, n=3), the “effect of TNP-ATP on ACh-stimulated [^3H]-GABA release” value is “no effect”.
For α-conotoxin MII [α-CtxMII], in the test on rat α3β2 receptors, the “t1/2 of recovery from α-CtxMII inhibition, rat α3β2 receptors” value is “approximately 4 minutes” and the “time by which full recovery was observed, rat α3β2 receptors” value is listed as at most 26 min. In addition, in test [1], the “concentration at which maximal inhibition of [^3H]-GABA release was achieved” value worked out at 30 nM; the “effect of 100nM α-CtxMII on response to ACh” value was “reduced the response seen by stimulation with ACh, but did not eliminate it”; the “nAChR-mediated SuSC [^3H]-GABA release inhibited by α-conotoxinMII (abstract)” value was “Approximately 50%”; the “α-CtxMII sensitive fraction of total [^3H]-GABA release” value was 58 ± 7%. The IC50 in test [1] (read-out: IC50, inhibition of ACh-stimulated [^3H]-GABA release) stood at 1.05 nM. In [2], the “α-CtxMII sensitive [^3H]-GABA release after β3 subunit gene deletion” value was “unaffected” and the “α-CtxMII-sensitive [^3H]-GABA release after deletion of the α6 subunit” value was “no appreciable impact”. For the same compound, the “[^3H]-GABA release in α6-null mutant mice” value in [2] (n = 4) is on record as “indistinguishable from the same measures in wild-type mice”. In test [3], the “inhibition of [^125I]-epibatidine binding” value is recorded as “not inhibited by α-CtxMII at concentrations below 1 μM”. The “specific [^125I]epibatidine binding sensitive to inhibition by α-CtxMII” value in the test on nAChRs in SuSC membranes (0.0002 µM) is 40 +/- 5% and 40.2 ± 5.2%. For the same compound, the IC50 in the test on nAChRs in SuSC membranes (read-out: IC50 for the α-CtxMII-resistant sites) is above 1000 nM. Also, in test [4], the “t1/2 of recovery from α-CtxMII inhibition, [^3H]-DA release” value was around 26 min. Besides, in the test on α6β2* and α3β2* nAChR, the “affinity for α6β2* and α3β2* nAChR subtypes” value is listed as “high affinity”; the “subtypes inhibited by the α-conotoxin” value is “inhibits both α3β2*- and α6β2*-nAChR”. Further, in test [5], the “lag period during which no recovery was observed” value is “approximately 5 min”. For the same compound, in test [5] (n = 3-4), the “functional recovery of ACh-evoked [^3H]-GABA release, of control” value is reported as 91 ± 18%; the “t1/2 for recovery from α-CtxMII inhibition” value is 5.2 min and ~5 min. The “inhibition of ACh-stimulated [^3H]-dopamine release” value in [6] was determined as 41.2 ± 2.8%. In the test on SuSC crude synaptosomes, the “K^+-evoked [^3H]-GABA release in the presence of α-CtxMII” value came out at 14.1 ± 2.7.
`[125I]c1ccc(C2CC3CCC2N3)cn1` (stereo not shown) [[^125I]-epibatidine]: in [3], the “Bmax, [^125I]-epibatidine binding” value is reported as 56 ± 2 fmol/mg. The “Bmax, specific [^125I]epibatidine binding” value in the test on nAChRs in SuSC membranes was 100 ± 2 fmol/mg.
For `CC(=O)OCC[N+](C)(C)C` [ACh, Acetylcholine], in test [1], the “loss of ACh-evoked [^3H]-GABA release in the absence of external calcium” value stood at 94 ± 3%; the “maximal ACh-stimulated [^3H]-GABA release, α-CtxMII-resistant component” value came to 1.00 ± 0.20 × baseline; the “maximal ACh-stimulated [^3H]-GABA release, α-CtxMII-sensitive component” value came to 0.71 ± 0.08 × baseline; the “maximal [^3H]-GABA release, high sensitivity component” value is 0.68 ± 0.19. Also, in test [1], the “maximal [^3H]-GABA release, low sensitivity component” value amounted to 1.47 ± 0.21 and the “share of ACh-elicited [^3H]-GABA release due to α4β2*-type receptor” value was around 65%. Further, in test [2], the “ACh-stimulated [^3H]-GABA release in β2^-/- mice” value is on record as “entirely β2 subunit-dependent; also recorded: completely absent”; the “ACh-stimulated [^3H]-GABA release remaining in α4^-/- mice, of WT activity” value is reported as 9.7 ± 1.1 % of WT activity remaining; the “decrease of total function by α4 subunit deletion” value is listed as above 90%.
Consider `[Cd]` [cadmium], for which, in test [1], the “block of ACh-stimulated [^3H]-GABA release by cadmium” value was 94 ± 1% and the “effect on ACh-evoked [^3H]-GABA release (abstract)” value is given as “blocked”.
As to `CN1[C@@H](CC(=O)c2ccccc2)CCC[C@H]1C[C@H](O)c1ccccc1` [lobeline], the “visual responses originating in the SuSC” value in the test on nAChR, SuSC is recorded as “reduced”.
As to `CN1CCC[C@H]1c1cccnc1` [nicotine], in the test on α4β2* nAChR, the “binding to α4β2* nAChR” value is “binds nicotine and other agonists with high affinity”.
Regarding `CN1[C@@H]2CC[C@H]1C[C@@H](OC(=O)c1cc(Cl)cc(Cl)c1)C2` [MDL-72222, Tropanyl 3,5-dichlorobenzoate], the “effect of MDL-72222 on ACh-stimulated [^3H]-GABA release” value in test [1] (1 μM, 5 min, n=5) is given as “no effect”.
